Assay results taken from PMC11266321 (EJNMMI Radiopharmacy and Chemistry, 2024).
Where “and” joins values, the source holds several entries; their conditions need not be identical. Identical values can stand only once.

Legend:
Adenosine A1 = molecular target: T1, Adenosine A1 (Homo sapiens, UniProt P30542); test: Radioligand binding inhibition, Adenosine A1; conditions: 10 µM; radioligand [^3H]DPCPX; mean of duplicate
T1 construct: Sekisui Medical (contract laboratory)
Procedure: (§1) Interaction of MMP with 28 binding sites was examined, including major classes of neurotransmitter receptor, uptake system, and ion channels (Sekisui Medical, Naka, Japan). MMP was tested in all assays at 10 µM. […] Each determination was made in duplicate.
(§2) Test substance concentration : 10 µM, positive substance concentration : 10 µM
(§3) Data are expressed as the mean values of duplicate samples.
(§4) The % inhibition was calculated from “100 – binding ratio”.
(§5) Binding ratio: [(B - N) / (B0 - N)] × 100 (%)
(§6) B: Bound radioactivity in the presence of test substance and positive substance (individual value)
(§7) B0: Total bound radioactivity in the absence of test substance and positive substance (mean value)
(§8) N: Non-specific bound radioactivity (mean value)

[1] = system: α1-Adrenergic (non-selective); test: Radioligand binding inhibition, α1-Adrenergic; conditions: 10 µM; radioligand [^3H]Prazosin; mean of duplicate
[2] = system: α2-Adrenergic (non-selective); test: Radioligand binding inhibition, α2-Adrenergic; conditions: 10 µM; radioligand [^3H]Rauwolscine; mean of duplicate
Procedure: (§9) Interaction of MMP with 28 binding sites was examined, including major classes of neurotransmitter receptor, uptake system, and ion channels (Sekisui Medical, Naka, Japan). MMP was tested in all assays at 10 µM. […] 10.2.3 (GraphPad Software, San Diego, CA). Each determination was made in duplicate.
as §2, §3, §4, §5, §6, §7, §8

GABA A (agonist site) = test: Radioligand binding inhibition, GABA A agonist site; conditions: 10 µM; radioligand [^3H]Muscimol; mean of duplicate
Procedure: as §9, §2, §3, §4, §5, §6, §7, §8

Glutamate (AMPA) = test: Radioligand binding inhibition, Glutamate AMPA; conditions: 10 µM; radioligand [^3H]AMPA; mean of duplicate
Procedure: as §9, §2, §3, §4, §5, §6, §7, §8

Glutamate (Ketamine) = test: Radioligand binding inhibition, Glutamate (Ketamine); conditions: 10 µM; radioligand [^3H]Kainic acid; mean of duplicate
[3] = system: Glutamate (NMDA agonist site); test: Radioligand binding inhibition, Glutamate NMDA agonist site; conditions: 10 µM; radioligand [^3H]CGP-39653; mean of duplicate
Procedure: as §9, §2, §3, §4, §5, §6, §7, §8

[4] = molecular target: T2, Glutamate (NMDA glycine site) (Homo sapiens, UniProt Q05586); test: Radioligand binding inhibition, Glutamate NMDA glycine site; conditions: 10 µM; radioligand [^3H]MDL105,519; mean of duplicate
T2 construct: Sekisui Medical (contract laboratory)
Procedure: as §9, §2, §3, §4, §5, §6, §7, §8

[5] = system: Glutamate (NMDA phencyclidine site); test: Radioligand binding inhibition, Glutamate NMDA phencyclidine site; conditions: 10 µM; radioligand [^3H]MK-801; mean of duplicate
Procedure: as §9, §2, §3, §4, §5, §6, §7, §8

Histamine H1 (central) = molecular target: T3, Histamine H1 (central) (Homo sapiens, UniProt P35367); format: binding; conditions: 10 µM; radioligand [^3H]Pyrilamine; mean of duplicate
T3 construct: Sekisui Medical (contract laboratory)
T3 sequence (P35367 whole entry): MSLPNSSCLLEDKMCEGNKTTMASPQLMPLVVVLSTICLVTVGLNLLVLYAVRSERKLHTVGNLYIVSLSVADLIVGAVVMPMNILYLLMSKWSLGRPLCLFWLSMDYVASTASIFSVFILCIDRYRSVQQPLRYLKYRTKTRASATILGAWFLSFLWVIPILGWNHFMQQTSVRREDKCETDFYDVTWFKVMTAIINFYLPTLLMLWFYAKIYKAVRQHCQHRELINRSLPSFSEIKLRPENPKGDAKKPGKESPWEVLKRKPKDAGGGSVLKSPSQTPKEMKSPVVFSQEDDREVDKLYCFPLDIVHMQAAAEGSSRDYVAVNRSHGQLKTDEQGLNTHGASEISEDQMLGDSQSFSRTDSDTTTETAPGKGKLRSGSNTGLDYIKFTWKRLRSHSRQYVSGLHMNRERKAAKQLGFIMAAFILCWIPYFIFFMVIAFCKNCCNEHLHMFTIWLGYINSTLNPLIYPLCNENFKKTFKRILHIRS

Histamine H2 = molecular target: T4, Histamine H2 (Homo sapiens, UniProt P25021); test: Radioligand binding inhibition, Histamine H2; conditions: 10 µM; radioligand [^125I]Iodoaminopotentidine; mean of duplicate
T4 construct: Sekisui Medical (contract laboratory)
T4 sequence (P25021 whole entry): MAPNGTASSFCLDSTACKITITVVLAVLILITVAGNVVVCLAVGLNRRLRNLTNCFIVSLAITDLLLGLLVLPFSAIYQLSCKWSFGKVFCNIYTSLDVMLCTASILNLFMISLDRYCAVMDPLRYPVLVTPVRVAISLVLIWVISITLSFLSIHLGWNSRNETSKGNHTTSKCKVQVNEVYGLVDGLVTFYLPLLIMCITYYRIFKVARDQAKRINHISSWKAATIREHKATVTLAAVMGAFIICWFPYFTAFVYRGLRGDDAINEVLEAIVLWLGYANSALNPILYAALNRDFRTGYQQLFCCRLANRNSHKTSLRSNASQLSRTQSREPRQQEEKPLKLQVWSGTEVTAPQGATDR
Procedure: as §9, §2, §3, §4, §5, §6, §7, §8

Histamine H3 = molecular target: T5, Histamine H3 (Homo sapiens, UniProt Q9Y5N1); test: Radioligand binding inhibition, Histamine H3; conditions: 10 µM; radioligand [^3H]N-methyl-histamine; mean of duplicate
T5 construct: Sekisui Medical (contract laboratory)
T5 sequence (Q9Y5N1 whole entry): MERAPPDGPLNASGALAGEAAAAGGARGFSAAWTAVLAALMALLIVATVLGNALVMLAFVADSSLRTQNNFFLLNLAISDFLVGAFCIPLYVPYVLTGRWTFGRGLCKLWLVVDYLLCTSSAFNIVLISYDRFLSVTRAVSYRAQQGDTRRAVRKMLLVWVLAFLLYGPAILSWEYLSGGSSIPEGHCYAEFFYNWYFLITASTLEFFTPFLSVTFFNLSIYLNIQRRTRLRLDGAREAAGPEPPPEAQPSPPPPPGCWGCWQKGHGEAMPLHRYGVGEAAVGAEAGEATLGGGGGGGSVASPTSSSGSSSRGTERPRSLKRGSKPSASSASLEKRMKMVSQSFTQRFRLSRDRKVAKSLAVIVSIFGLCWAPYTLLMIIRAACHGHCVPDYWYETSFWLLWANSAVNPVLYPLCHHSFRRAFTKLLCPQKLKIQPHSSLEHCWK
Procedure: as §1, §2, §3, §4, §5, §6, §7, §8

Muscarinic M1 = molecular target: T6, Muscarinic M1 (Homo sapiens, UniProt P11229); format: binding; conditions: 10 µM; radioligand [^3H]Pirenzepine; mean of duplicate
T6 construct: Sekisui Medical (contract laboratory)
T6 sequence (P11229 whole entry): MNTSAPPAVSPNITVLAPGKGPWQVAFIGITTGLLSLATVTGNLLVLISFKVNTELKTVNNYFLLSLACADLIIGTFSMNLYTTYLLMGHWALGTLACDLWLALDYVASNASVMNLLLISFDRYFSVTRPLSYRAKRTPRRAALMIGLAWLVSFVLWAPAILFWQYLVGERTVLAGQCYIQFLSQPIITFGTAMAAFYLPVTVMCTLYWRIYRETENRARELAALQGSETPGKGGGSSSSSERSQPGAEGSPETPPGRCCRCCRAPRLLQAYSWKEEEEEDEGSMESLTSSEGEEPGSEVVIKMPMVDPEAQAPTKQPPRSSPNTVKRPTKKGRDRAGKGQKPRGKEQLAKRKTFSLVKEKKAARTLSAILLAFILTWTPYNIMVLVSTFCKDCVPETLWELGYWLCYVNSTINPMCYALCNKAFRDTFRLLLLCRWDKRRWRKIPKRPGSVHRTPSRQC

Opiate (non-selective) = test: Radioligand binding inhibition, Opiate; conditions: 10 µM; radioligand [^3H]Naloxone; mean of duplicate
Procedure: as §9, §2, §3, §4, §5, §6, §7, §8

Serotonin 5HT1A = molecular target: T7, Serotonin 5HT1A (Homo sapiens, UniProt P08908); test: Radioligand binding inhibition, Serotonin 5HT1A; conditions: 10 µM; radioligand [^3H]8-OH DPAT; mean of duplicate
T7 construct: Sekisui Medical (contract laboratory)
T7 sequence (P08908 whole entry): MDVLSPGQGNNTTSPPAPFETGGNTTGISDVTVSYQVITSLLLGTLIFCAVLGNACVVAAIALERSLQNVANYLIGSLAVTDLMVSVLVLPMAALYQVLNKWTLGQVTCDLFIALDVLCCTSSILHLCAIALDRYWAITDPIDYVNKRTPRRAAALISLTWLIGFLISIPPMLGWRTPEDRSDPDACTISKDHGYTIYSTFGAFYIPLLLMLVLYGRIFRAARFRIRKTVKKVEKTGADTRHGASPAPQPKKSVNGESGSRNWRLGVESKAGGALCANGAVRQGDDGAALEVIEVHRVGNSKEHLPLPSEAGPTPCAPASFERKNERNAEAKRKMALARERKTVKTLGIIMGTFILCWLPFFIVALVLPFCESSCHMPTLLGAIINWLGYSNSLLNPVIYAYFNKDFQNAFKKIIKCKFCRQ
Procedure: as §9, §2, §3, §4, §5, §6, §7, §8

Sigma (non-selective) = test: Radioligand binding inhibition and competitive inhibition curve, sigma receptor
Procedure: as §1
Data are expressed as mean values of duplicate samples.
as §2, §3, §4, §5, §6, §7, §8

[6] = system: other brain neuroreceptors; test: Receptor selectivity panel, other binding sites; conditions: 10 µM; binding sites other than sigma
Procedure: as §9

T1 sequence (P30542 whole entry): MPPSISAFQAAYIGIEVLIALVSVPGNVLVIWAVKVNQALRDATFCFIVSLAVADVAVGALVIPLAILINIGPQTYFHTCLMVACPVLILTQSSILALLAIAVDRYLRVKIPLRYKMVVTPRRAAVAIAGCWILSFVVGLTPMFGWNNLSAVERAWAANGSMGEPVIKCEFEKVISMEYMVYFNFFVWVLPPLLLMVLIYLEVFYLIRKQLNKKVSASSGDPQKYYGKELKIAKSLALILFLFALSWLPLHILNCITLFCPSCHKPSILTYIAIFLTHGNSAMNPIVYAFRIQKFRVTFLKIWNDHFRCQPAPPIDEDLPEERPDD

Cc1ccc(CC(C)NC(C)C)cc1 (stereo not shown) [MMP, N-isopropyl-p-methylamphetamine]
Inhibition ratio (%) (Adenosine A1): 3.26% | Inhibition ratio (%) [1]: 44.47% | Inhibition ratio (%) [2]: 42.47% | Inhibition ratio (%) (GABA A (agonist site)): 3.62% | Inhibition ratio (%) (Glutamate (AMPA)): 5.98% | Inhibition ratio (%) (Glutamate (Ketamine)): 11.86% | Inhibition ratio (%) [3]: 4.63% | Inhibition ratio (%) [4]: 0.22% | Inhibition ratio (%) [5]: 0.00% | Inhibition ratio (%) (Histamine H1 (central)): 11.97% | Inhibition ratio (%) (Histamine H2): 14.43% | Inhibition ratio (%) (Histamine H3): 3.82% | Inhibition ratio (%) (Muscarinic M1): 27.81% | Inhibition ratio (%) (Opiate (non-selective)): 4.92% | Inhibition ratio (%) (Serotonin 5HT1A): 15.84% | Inhibition ratio (%) (Sigma (non-selective); 10 µM, radioligand [^3H]DTG, mean of duplicate): 86% and 85.89% | IC50 (Sigma (non-selective); competitive inhibition curve, [^3H]DTG, duplicate): 1100 nM | affinity for sigma receptor relative to existing sigma receptor ligand (haloperidol) (Sigma (non-selective); fraction of the affinity of haloperidol): approximately 1/100 | inhibition, other brain neuroreceptors [6]: < 50%
